The test system of experiment [1] is Nuclear-GFP BacMam 2.0 virus (baculovirus). The experiment can be described thus: Infectivity of PTM analog-labeled Nuclear-GFP BacMam virus in U2-OS cells. The class given is cell-based. Particulars: BacMam virus labeled in Sf9 insect cells with 50 uM analog; U2-OS cells incubated overnight with labeled virus; FIG. 5. An excerpt:
Inhibition of insect cell baculovirus infectivity with azido fatty acid analogs: The BacMam system uses a modified insect cell virus (baculovirus) as a vehicle to efficiently deliver and express genes in mammalian cells. A Nuclear-GFP BacMam 2.0 expression system (Invitrogen, C10602) was used as a model to determine if PTM analog labeling of the virus would affect mammalian cell infectivity. Viruses were labeled with various PTM analogs and used to infect mammalian cells. Infectivity was determined by the expression of nuclear-GFP, as viral entry into the cell is required for expression of GFP protein. […]
Characterization of BacMam Virus Production: To verify, quantitate, and normalize the amount of enriched viruses obtained from insect cell supernatants, samples of each virus were lysed in SDS sample preparation buffer (SPB), sonicated with a probe tip sonicator, and heated at 90C to completely dissolve the viral proteins. Viral protein concentrations of the lysates were then determined. […]
Mammalian Cell Infection Protocol: To determine if the PTM analog-labeled viruses retain the ability to infect mammalian cells, 50,000 U2-OS cells (human osteosarcoma cell line) were plated onto a 6 well-chamber glass bottom plate. […] The following day cells were imaged on AMG EVOS fluorescence microscope at 10× or 20× magnification using both white light and GFP filters (FIG. 5). […]

For another experiment, the system named is HIV. Kind of experiment: Luciferase reporter assay of infectivity of azide-labeled HIV on TZM/BI reporter cells. The experiment is classed as cell-based, human immunodeficiency virus. Particulars: HIVNL4-3 produced in CEMx174 cells spiked with the compound; labeled virus incubated 12 hours on TZM/BI reporter cells; single cycle replication system; FIGS. 3 and 4. The method, then:
CEMx174 cells were transfected with HIVNL4-3 in a T-150 flask and the virus production was monitored by reverse transcriptase activity until peak virus production occurred (usually 7 to 9 days post transfection). Prior to transfection, the CEMx174 cells were spiked with the following azide-modified biomolecules: 15-azidopentadecanoic acid (50-100 μM), 12-azidododecanoic acid (50-100 μM), tetraacetylated N-azidoacetylgalactosamine (20-40 μM), and tetraacetylated N-azidoacetyl-D-mannosamine (20-40 μM).
Labeled virus was also obtained from the transfected cells. More specifically, virus-containing supernatants were collected and virus was purified through 20% sucrose as previously described (Graham, D. R. et al., Proteomics 2008, 8:4919-30). The purified virus was then mixed with the CLICK-IT® detection reagent, tetramethylrhodamine (TAMRA) alkyne and the CLICK-IT® Protein Reaction Buffer Kit (Invitrogen, Carlsbad, Calif.). Virus samples were run on a one-dimensional gel to reveal azide-labeled viral proteins (FIG. 2). […]
To examine the effect of the azide-modified biomolecules on the innate biology of the virus, the azide-labeled virus from the transfected cells was isolated and tested in cell infection studies. […] Viral infectivity was determined by measuring cellular luciferase activities with two different luciferase reagents.

Results on two compounds are retold here after patent US20120028244A1, “Anti-Viral Azide Containing Compounds” (LIFE TECHNOLOGIES CORPORATION, priority 2010, published 2012).

Each structure is given as a SMILES string.

Regarding `[N-]=[N+]=NCCCCCCCCCCCCCCC(=O)O` [15-azidopentadecanoic acid], in experiment [1], the “nuclear-GFP expression in U2-OS cells (viral entry)” value was “no nuclear-GFP expression”. Turning to `[N-]=[N+]=NCCCCCCCCCCCC(=O)O` [12-azidododecanoic acid], the “impact on the infectivity of the virus (cellular luciferase activity)” value in the experiment with HIV is given as “profound impact on the infectivity of the virus”. The “nuclear-GFP expression in U2-OS cells (viral entry)” value in experiment [1] was “no nuclear-GFP expression”.
